Measured values as given in patent US7473688B2, “Indolobenzazepine HCV NS5B inhibitors” (Bristol-Myers Squibb Company, priority 2005, dated 2009).
Where two headings read alike, the source gives them in different places.

Assays:
HCV replicon = HCV replicon FRET assay; format: cell-based; settings: Hepatitis C virus, FRET assay, read-out: EC50*
Outline: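 HCV replicon cells, with or without Renilla luciferase reporter, incubated with titrated compounds at 37 °C; Alamar blue read for cytotoxicity. NS3 protease activity read from lysates with 20 μM EDANS/DABCYL FRET peptide (340/490 nm, kinetic), or by Dual-Glo luciferase. Background from highest protease-inhibitor wells; EC50 = 50% signal reduction.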

HCV NS5B = biological target: T1, HCV NS5B (Hepatitis C virus genotype 1b, UniProt Q9WMX2); assay: HCV NS5B RdRp enzyme assay (preincubation protocol); format: biochemical
T1 construct: The protein was expressed with an 18 amino acid C-terminal truncation to enhance the solubility; made in house; host or cells: E. coli BL21 (DE3), pET21a
T1 sequence (Q9WMX2 2420-2992): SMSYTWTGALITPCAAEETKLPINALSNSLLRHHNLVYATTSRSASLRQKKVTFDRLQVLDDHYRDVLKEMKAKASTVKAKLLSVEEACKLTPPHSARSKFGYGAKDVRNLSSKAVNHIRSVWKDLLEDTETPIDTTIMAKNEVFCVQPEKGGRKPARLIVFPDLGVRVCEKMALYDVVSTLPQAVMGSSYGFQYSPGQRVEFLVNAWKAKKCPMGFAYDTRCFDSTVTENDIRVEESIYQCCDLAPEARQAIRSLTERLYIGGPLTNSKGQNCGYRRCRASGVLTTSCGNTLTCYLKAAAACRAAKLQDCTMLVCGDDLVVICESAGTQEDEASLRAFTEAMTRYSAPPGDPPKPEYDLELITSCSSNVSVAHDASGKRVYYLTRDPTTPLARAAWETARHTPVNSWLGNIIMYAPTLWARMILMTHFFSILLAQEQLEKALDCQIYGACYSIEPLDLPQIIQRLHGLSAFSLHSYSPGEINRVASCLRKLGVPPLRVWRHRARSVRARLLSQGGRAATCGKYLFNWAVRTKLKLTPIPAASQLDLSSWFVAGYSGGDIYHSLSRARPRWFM
Outline: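 C-terminally truncated (Δ18) genotype 1b NS5B from E. coli, 14 nM, added to compound, then polyA template (0.2 nM), 3H-UTP (0.29 μM) and oligo-dT12 primer precaptured on streptavidin SPA beads. 4 h at 30 °C, pH 7.5, 2% DMSO; SPA readout; IC50 from seven concentrations by logistic fit.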

Compound	EC50 (HCV replicon; Table 1)	IC50 (HCV NS5B; Table 1, read-out: IC50*)	EC50 (HCV replicon; Table 1a)	IC50 (HCV NS5B; Table 1a, read-out: IC50*)	further results
COc1ccc2c(c1)C=C(C(=O)N(C)CC(=O)N(C)C)Cn1c-2c(C2CCCCC2)c2ccc(C(=O)NS(=O)(=O)N(C)C)cc21 [drawing 162]	0.07 to 1 µM	0.01 to 1 µM			
CN(C)S(=O)(=O)NC(=O)c1ccc2c(C3CCCCC3)c3n(c2c1)CC(C(=O)N1CCC(F)CC1)=Cc1ccccc1-3 [drawing 196]	0.07 to 1 µM	0.01 to 1 µM			
O=C(NCc1cnn[nH]1)c1ccc2c(C3CCCCC3)c3n(c2c1)CC(C(=O)N1CCC(N2CCOCC2)CC1)=Cc1ccccc1-3 [drawing 203]	1 to 10 µM	0.01 to 1 µM			
CN(C)S(=O)(=O)NC(=O)c1ccc2c(C3CCCCC3)c3n(c2c1)CC(C(=O)N1CCCC(=O)N1)=Cc1ccccc1-3 [drawing 236]			0.03 to 1 µM	0.01 to 1 µM	
COc1ccc2c(c1)C=C(C(=O)N1CCOCC1)Cn1c-2c(C2CCCCC2)c2ccc(C(=O)NS(=O)(=O)N3CCOCC3)cc21 [drawing 237]			0.03 to 1 µM	0.01 to 1 µM	
COc1ccc2c(c1)C=C(C(=O)N(C)CC(=O)N(C)C)Cn1c-2c(C2CCCCC2)c2ccc(C(=O)NS(=O)(=O)N(C)C)cc21 [drawing 238]			0.03 to 1 µM	0.01 to 1 µM	
COc1ccc2c(c1)C=C(C(=O)N1CCN(CC(F)(F)F)CC1)Cn1c-2c(C2CCCCC2)c2ccc(C(=O)NS(=O)(=O)N(C)C)cc21 [drawing 390]			0.03 to 1 µM	0.01 to 1 µM	
O=C(NS(=O)(=O)N1CCN(CC(F)(F)F)CC1)c1ccc2c(C3CCCCC3)c3n(c2c1)CC(C(=O)N1CCOCC1)=Cc1ccccc1-3 [drawing 391]			0.03 to 1 µM	0.01 to 1 µM	
COc1ccc2c(c1)C=C(C(=O)N1CCN(CC(F)(F)F)CC1)Cn1c-2c(C2CCCCC2)c2ccc(C(=O)NS(=O)(=O)N(C)C)cc21 [drawing 393]					EC50 (HCV replicon; Table 1b): 0.03 to 1 µM; IC50 (HCV NS5B; Table 1b, read-out: IC50*): 0.02 to 1 µM
O=C(NS(=O)(=O)N1CCN(CC(F)(F)F)CC1)c1ccc2c(C3CCCCC3)c3n(c2c1)CC(C(=O)N1CCOCC1)=Cc1ccccc1-3 [drawing 395]					EC50 (HCV replicon; Table 1b): 0.03 to 1 µM; IC50 (HCV NS5B; Table 1b, read-out: IC50*): 0.02 to 1 µM
